Test results published in patent publication US20230257383A1, “COMPOUND SERVING AS BTK INHIBITOR, PREPARATION METHOD THEREFOR, AND USE THEREOF” (CHENGDU HYPERWAY PHARMACEUTICALS CO., LTD., priority 2020, published 2023).

Columns and labels:
[1] = system: TMD8 mouse subcutaneous xenograft tumor; assay: TMD8 pharmacodynamic model test; format: in vivo; settings: same dose of 20 mg/kg, FIG. 2
Procedure: Test Example 7: TNMD8 Pharmacodynamic Model Test
Human diffuse large B-cell lymphoma TMD8 cells were monolayer-cultured in vitro in RPNHI1640 medium with […], 100 U/mL penicillin and 100 μg/mL streptomycin, in a 37° C., […] incubator. Routine digestion with trypsin-EDTA was performed twice a week for passaging. When the cell density was […] and the number reached the requirement, cells were harvested, counted and inoculated. 0.2 ml (1×10^7 cells) of TMVD8 cells (added with matrigel at a volume ratio of 1:1) were subcutaneously inoculated on the right back of each mouse. The mice were administered in groups when the average tumor volume reached about 137 mm^3. Tumor diameters were measured twice a week with vernier calipers. The tumor volume was calculated by the formula V=0.5 a×b^2, where a and b represent the long and short diameters of the tumor, respectively.

TMD8 cell proliferation = assay: In vitro cell proliferation inhibitory activity test (CTG), TMD8; format: cell-based; settings: Homo sapiens, TMD8, 72 h, TMD8 cells
Procedure: Test Example 4: In Vitro Cell Proliferation Inhibitory Activity Test
Cells were cultured in 1640 medium, added with 10% inactivated FBS and 1% double antibiotics, and cultured at 37° C. and 5% CO2.
(1) Cells were routinely cultured until the cell density was 80%-90%, and the cells were harvested when their number reached the requirement.
(2) Cells were resuspended with corresponding culture medium, counted, and prepared into cell suspension at appropriate density.
(3) The cell suspension was added to a 96-well plate, 100 μL per well.
(4) Cells were cultured overnight in a 37° C., 5% CO2 incubator.
(1) The compounds to be tested were diluted with DMSO to make a stock solution with a final concentration of 20 mM for later use.
(2) The stock solution was diluted 10 times from 20 mM to 2 mM with DMSO, and then diluted 3 times from 2 mM to 9 concentrations.
(3) The blank control wells were cells plus 0.5% DMSO, as high-reading control wells.
(4) Wells with no cells and only medium were used as low-reading control wells.
4: Cell treatment with compound
(1) 24 h after the cells were plated, the compounds acted alone, and 99 μL of growth medium was added to each well, followed by 1 μL of the compound prepared in step 3. The plate was shaken gently to mix uniformly, and then placed in a 37° C., 5% CO2 incubator.
(2) The cell plate was placed in an incubator for 72 h.
5: Detection by CTG method
(1) The cell plate to be tested was placed at room temperature for 30 min, and 100 μL of medium was discarded from each well.
(2) 100 μL of CTG reagent (CelltiterGlo kit) was added to each well, placed on a fast shaker for 2 min, and stood at room temperature in the dark for 30 min.
(3) The chemiluminescent signal value was read with the Envision instrument.
IC50 was calculated by using GraphPad Prism 8 software. The IC50 (half inhibitory concentration) of the compound was derived using the following nonlinear fitting formula, and the results are shown in the following table:
Y=Bottom+(Top−Bottom)/(1+10^((Log IC50−X)×HillSlope))
X: log value of compound concentration, Y: inhibition rate (% inhibition)
Inhibition rate (% inhibition)=(reading of high-reading control well-reading of compound well)/(reading of high-reading control well-reading of low-reading control well)×100

[2] = Pharmacokinetic test, oral, SD rats; format: in vivo; settings: rat, plasma, oral 10 mg/kg
Procedure: Each test compound was administered orally (10 mg/kg, 3 rats in each group) to SD rats for pharmacokinetic study. […] Animals were fasted overnight before oral administration, and fed again after 4 h of administration. […] At each collection time point, 3 whole blood samples were collected at a the collection volume of about 0.2-0.3 mL. […] The collected plasma was stored at −20° C. before analysis. 20 μL of plasma sample was added into a 1.6 mL 96-well deep-well plate, added with 200 μL of working internal standard solution (the same volume of vehicle was added to the blank instead of internal standard), vortexed for 1 min, and centrifuged at 5800 rpm for 10 min. 100 μL of the supernatant was added to a 96-well injection plate for LC-MS/MS analysis.

| SMILES | inhibitory effect against the tumor compared with Tirabrutinib [1] | IC50 (TMD8 cell proliferation) | AUC(0-inf) [2] | Cmax [2] | half-life ([2]; read-out: T½ (converted)) |
| --- | --- | --- | --- | --- | --- |
| Nc1nccn2c(C3CCC(CO)OC3)nc(-c3ccc(C(F)(F)c4ccccc4)cc3)c12 (single isomer, unassigned) [Example 111-P1] | significantly better inhibitory effect against the tumor than Tirabrutinib |  |  |  |  |
| Nc1nccn2c(C34CCC(CO)(CC3)OC4)nc(-c3ccc(C(F)(F)c4ccccc4)cc3)c12 [Example 125] | significantly better inhibitory effect against the tumor than Tirabrutinib | 92.4 nM |  |  |  |
| Nc1nccn2c(C34CCC(CO)(CC3)OC4)nc(-c3ccc(C(F)(F)c4ccccc4F)cc3)c12 [Example 145] |  |  | 17200 ng·h/mL | 1550 ng/mL | 2.78 h |
